# Measurements from paper PMC11895359 (Alzheimer's Research & Therapy, 2025).
# Where “and” joins values, the source holds several entries; their conditions need not be identical. Equal entries are not always repeated. Where two headings read alike, the source gives them in different places.
# Experiments:
# muscle regeneration = conditions: aged mouse models; cited from earlier work
# [1] = biological target: nicotinamide N-methyl transferase; conditions: competes with nicotinamide; cited from earlier work
# [2] = tested on: nicotinamide N-methyl transferase; conditions: cited from earlier work
# [3] = LC/MS measurement of CSF nicotinamide and metabolites in NEAT trial participants; conditions: for Kp at 12 months / concentration at 12 months: 1500 mg; for Kp at 12 months: CSF methyl-nicotinamide as percent of plasma methyl-nicotinamide
# Method: CSF samples were collected at 0 and 12 months.
# The injection volume was 10 μL in triplicate.
# (§1) We also measured the within-participant association between analytes. […] All bar graphs show mean and standard errors.
# [4] = cited from earlier work
# [5] = LC/MS measurement of plasma nicotinamide and metabolites in NEAT trial participants; conditions: for concentration at 0 months: Plasma analyte concentration, this work baseline; for Plasma measure: obtained simultaneously with nicotinamide by LC/MS
# Excerpt: (§2) The NEAT trial participants were recruited at UCLA and UC Irvine and were required to meet eligibility criteria that included clinical criteria for mild cognitive impairment or mild dementia due to AD, confirmed by a CSF biomarker (CSF amyloid beta 42 (Aβ42) ≤ 200 pg/mL or a ratio of total tau to Aβ42 ≥ 0.39) [9]. […] Blood was collected from all participants at 0, 6, and 12 months after overnight fasting and plasma rapidly obtained. CSF samples were collected at 0 and 12 months. Plasma and CSF samples were stored at −80 °C until further processing. All samples were included in analysis, with an interval from last dose of drug or placebo ranging from 6 to 432 h.
# (§3) Each calibration dilution contained IS at a constant concentration of 1 μM. IS was also added to each patient sample to a final concentration of 0.5 μM. All solutions and QC samples were stored at −20 °C. The lower limit of quantification for each analyte was determined by finding the lowest calibration curve concentration that could both be distinguished with 95% confidence from blank readings and have a signal-to-noise ratio greater than 8 to 1 [10].
# (§4) Protein was precipitated by adding 160 μL of −20 °C 99.7% acetonitrile-0.3% formic acid to the IS-sample mix. Samples were centrifuged for 20 min at 4 °C at 17,000 g. 40 μL of the supernatant was then diluted fivefold with 200 μL of 0.3% formic acid in an autosampler well plate (Waters186002643). All plasma and CSF analytes were determined simultaneously for groups of 4–20 participants from the 46 participants without knowledge of their treatment assignment.
# (§5) Samples were analyzed on a Waters Acquity UPLC Quattro Premier mass spectrometer in triple quadrupole electrospray positive (ESI +) mode with an Acquity CSH™ Fluoro-Phenyl (2.1 × 50 mm, 1.7 μm) column. For liquid chromatography separation, we modified the method of Chu et al. (2021). We used 0.3% formic acid in water as the mobile A phase, and 99.7% acetonitrile/0.3% formic acid as the mobile B phase. The injection volume was 10 μL in triplicate. The sample elution gradient was programmed as 0 – 0.5 min. in 100% A; 0.5–2.5 min, linear to 95% B; re-equilibrated from 2.5–4.5 min. in 100% A. The flow rate was 0.3 mL/min, and column temperature was 50 °C.
# (§6) Microsoft Excel (Version 16.82, Microsoft, Redmond, WA, USA) was used for data management and statistical analysis. Treatment allocation was unblinded after all sample analyte levels were completed by mass spectrometry. We compared the randomized placebo and treatment groups for main analyte effects by two-tailed unpaired Student’s T Tests, with significance at p < 0.05, without adjustment for multiple comparisons in this exploratory analysis. […] We also measured the within-participant association between analytes. […] All bar graphs show mean and standard errors.
# CSF pTau231 = test: Change in CSF pTau231 in NEAT trial participants; format: in vivo, human; design: PTAU231 Month 12, individual participant / PTAU231 change, individual participant: unit not given here
# Excerpt: as §1
# total tau = test: Change in CSF total tau in NEAT trial participants; format: in vivo, human; conditions: mean ± S.E.
# Excerpt: as §1
# pTau181 = test: Change in CSF pTau181 in NEAT trial participants; format: in vivo, human; conditions: CSF nicotinamide elevated, n = 6, 12 months, mean ± S.E.
# Excerpt: as §1
# Aβ40 = test: Change in CSF Aβ40 in NEAT trial participants; format: in vivo, human; conditions: mean ± S.E.
# Excerpt: as §1
# Aβ42 = test: Change in CSF Aβ42 in NEAT trial participants; format: in vivo, human; conditions: mean ± S.E.
# Excerpt: as §1
# Aβ42/40 = test: Change in CSF Aβ42/40 ratio in NEAT trial participants; format: in vivo, human; conditions: mean ± S.E.
# Excerpt: as §1
# total tau/ Aβ42 = test: Change in CSF total tau/Aβ42 ratio in NEAT trial participants; format: in vivo, human; conditions: mean ± S.E.
# Excerpt: as §1
# [6] = tested on: mouse models of Alzheimer’s disease; conditions: mouse models of AD; cited from earlier work
# [7] = phase 2a trial, high-dose oral nicotinamide, early AD; cited from earlier work
# [8] = design: method as in Galla et al. 16; conditions: ref Galla et al. 16, cited from earlier work
# Sirt1 = conditions: cited from earlier work
# [9] = in vivo
# Excerpt: as §2, §3, §4, §5, §6
# [10] = obtained simultaneously with nicotinamide by LC/MS
# [11] = n = 10, ± S.D., ref Clement et al. 14
# [12] = n = 100, ± S.D., ref Seyedsadjadi et al. 15
# [13] = CSF nicotinamide elevated, n = 6, 12 months
# [14] = n = 659, ± S.D., ref Chu et al. 12
# [15] = TX 1500mg, values below limit of quantification set to 0.1 uM, listed as 1-Methynicotinamide
structure (smiles),measurement,setting,value
C[n+]1cccc2c(N)cccc21 [5-amino-1-methylquinoline],Muscle regeneration,muscle regeneration,improve muscle regeneration
"COc1ccc(C(N)=O)cn1 [JBSNF-000088, 6-methyloxy-nicotinamide]",IC50,[1],1800 nM
same,Reduction of methyl-nicotinamide in mouse plasma,[2],50%
same,Effect on body weight,[2]; mouse,reduced body weight
"NC(=O)c1ccc[n+]([C@@H]2O[C@H](COP(=O)([O-])OP(=O)(O)OC[C@H]3O[C@@H](n4cnc5c(N)ncnc54)[C@H](O)[C@@H]3O)[C@@H](O)[C@H]2O)c1 [NAD^+, Nicotinamide Adenine Dinucleotide]",CSF measure,[3]; [10],below our limits of detection
same,Plasma analyte concentration,[4]; [11],0.008 ± 0.02 µM
same,Plasma analyte concentration,[4]; [12],0.023 ± 0.012 µM
same,concentration at 0 months,"[5]; human, plasma, baseline before treatment, n = 47, ± S.D.",< 1.2 µM
same,Plasma measure,[5],below our limits of detection
same,Plasma NAD+ (not measurable above),[5]; this work,< 1.2 nM
NC(=O)c1cccnc1 [Nicotinamide],"PTAU231 Month 12, individual participant",CSF pTau231; TX 1500mg,34.3 and 98.8 and 66 and 31.3 and 12.2 and 14.6 and 15.1 and 68.8 and 21.2 and 10.9 and 29 and 49.5 and 6.6 and 52.5 and 20.1 and 65.3 and 41 and 6.2 and 37
same,"PTAU231 change, individual participant","CSF pTau231; TX 1500mg, Month 12 minus baseline",-12 and 24 and -20 and -24.5 and -2.9 and -10.4 and -17.7 and 29.5 and -11.6 and 3.1 and 7.6 and 1.5 and -0.3 and -15 and -25.2 and -8.5 and -1.5 and -5.3
same,"PTAU231 % change, individual participant","CSF pTau231; TX 1500mg, Month 12 vs baseline",-26% and 32% and -23% and -44% and -19% and -42% and -54% and 75% and -35% and 40% and 36% and 3% and -4% and -22% and -1% and -28% and -17% and -13%
same,Percent Change in pTau231,"CSF pTau231; all treated participants, 12 months",-9%
same,Decrease of pTau231 from baseline,"CSF pTau231; six treated participants with elevated CSF nicotinamide, 12 months",34%
same,Percent Change in pTau231,"CSF pTau231; treated, CSF nicotinamide elevated (six participants), 12 months",-34%
same,Increase of pTau231 from baseline,"CSF pTau231; treated, CSF nicotinamide unelevated group, 12 months",3%
same,Percent Change in pTau231,"CSF pTau231; treated, CSF nicotinamide unelevated, 12 months",3%
same,Percent Change in pTau231,"CSF pTau231; treated, plasma nicotinamide elevated, 12 months",-4%
same,Percent Change in pTau231,"CSF pTau231; treated, plasma nicotinamide unelevated, 12 months",-15%
same,Change in total tau,total tau; [13],-35 ± 84 pg/mL
same,Change in total tau,"total tau; all treated, n = 19, 12 months",-8.6 ± 54 pg/mL
same,Change in pTau181,pTau181,1.1 ± 14 pg/mL
same,Change in Aβ40,Aβ40; [13],-1823 ± 1094 pg/mL
same,Change in Aβ40,"Aβ40; all treated, n = 19, 12 months",-2307 ± 593 pg/mL
same,Change in Aβ42,Aβ42; [13],-75 ± 44 pg/mL
same,Change in Aβ42,"Aβ42; all treated, n = 19, 12 months",-127 ± 38 pg/mL
same,Change in Aβ42/40,Aβ42/40; [13],−2.1 ± 4%
same,Change in Aβ42/40,"Aβ42/40; all treated, n = 19, 12 months",−3.7 ± 1.7%
same,Change in total tau/ Aβ42,total tau/ Aβ42; [13],35 ± 15%
same,Change in total tau/ Aβ42,"total tau/ Aβ42; all treated, n = 19, 12 months",41 ± 7%
same,Plasma analyte concentration,[4]; [11],38 ± 11 µM
same,Plasma analyte concentration,"[4]; n = 54, ± S.D., ref Ibrahim et al. 13",1.2 ± 0.14 µM
same,Plasma analyte concentration,[4]; [12],32 ± 11 µM
same,Plasma analyte concentration,[4]; [14],0.9 ± 0.02 µM
same,Cognitive function,[6],improved cognitive function
same,Safety and tolerability,[7],good safety and tolerability
same,Percent of treated participants with elevated plasma nicotinamide,"[5]; 12 months, n = 14 of 23",61%
same,concentration at 12 months,"[5]; human, plasma, oral, 1500 mg, Mean plasma nicotinamide, drug elevated subgroup, treated, plasma nicotinamide > […], 12 months",86 µM
same,concentration at 12 months,"[5]; human, plasma, oral, 1500 mg, Mean plasma nicotinamide, drug unelevated subgroup, treated, plasma nicotinamide ≤ […], 12 months",0.7 µM
same,concentration at 27 h,"[5]; human, plasma, oral, 1500 mg, Plasma nicotinamide, one participant, treated, sample 27 h after last dose",2 µM
same,concentration at 6 months,"[5]; human, plasma, po, 1500 mg, Mean plasma nicotinamide, nicotinamide-treated participants, 1500 mg PO BID",73 µM
same,concentration at 12 months,"[5]; human, plasma, po, 1500 mg, Mean plasma nicotinamide, nicotinamide-treated participants, 1500 mg PO BID, 12 months",52 µM
"C[n+]1cccc(C(N)=O)c1 [methyl-nicotinamide, 1-methyl-nicotinamide]",Percent of treated participants with CSF methyl-nicotinamide seen,"[3]; 12 months, n = 9 of 19",47%
same,Ratio of elevated plasma methyl-nicotinamide to CSF methyl-nicotinamide,"[3]; 125/3.4, 12 months",37
same,"CSF 1-Methynicotinamide, Month 12, individual participant",[3]; [15],0.1 µM and 5.9 µM and 6.5 µM and 4.1 µM and 5.6 µM and 5.7 µM and 1.4 µM and 1.3 µM and 6.4 µM and 7.5 µM and 9.2 µM and 3.6 µM
same,CSF methyl-nicotinamide as percent of CSF nicotinamide,"[3]; drug elevated subgroup, 3.4/57",6%
same,Kp at 12 months,"[3]; human, in vivo, drug elevated subgroup, 3.4 vs 125 μM",0.03
same,Kp at 12 months,"[3]; human, in vivo, drug unelevated subgroup, 2.4 vs plasma 37 μM",0.06
same,concentration at 12 months,"[3]; human, in vivo, CSF methyl-nicotinamide range in participants with elevated level, nicotinamide treated, 12 months",3 to 10 µM
same,concentration at 12 months,"[3]; human, in vivo, Mean CSF methyl-nicotinamide, CSF nicotinamide elevated subgroup, treated, 6 of 19 participants, 12 months",3.4 µM
same,concentration at 12 months,"[3]; human, in vivo, Mean CSF methyl-nicotinamide, CSF nicotinamide unelevated subgroup, treated, 12 months",2.4 µM
same,concentration at 12 months,"[3]; human, in vivo, Mean CSF methyl-nicotinamide, all nicotinamide-treated participants, 12 months",3.1 µM
same,concentration at 0 months,"[3]; human, in vivo, CSF analyte concentration, this work baseline, baseline before treatment, n = 47",≤ 0.1 µM
same,Fold increase of mean CSF methyl-nicotinamide,"[3]; treated, 12 months, vs 0.1 μM limit of quantification",at least 31 fold
same,Plasma analyte concentration,[4]; [11],0.05 ± 0.01 µM
same,Plasma analyte concentration,"[4]; n = 10, ± S.D., ref Galla et al. 16",0.185 ± 0.116 µM
same,Plasma analyte concentration,[4]; [12],0.033 ± 0.012 µM
same,Plasma analyte concentration,[4]; [14],0.1 ± 0.002 µM
same,CSF analyte concentration,"[8]; n = 10, ± S.D.",0.039 ± 0.025 µM
same,CSF methyl-nicotinamide,[8]; participants without AD,around 39 nM
same,Sirt1 binding and stabilization,Sirt1,binds to and stabilizes Sirt1
same,Fold increase of plasma methyl-nicotinamide above baseline in 6 of 7 nicotinamide unelevated participants,[5]; 12 months,at least 127 fold
same,"Plasma methyl-nicotinamide relative to mean plasma nicotinamide, drug elevated subgroup","[5]; 12 months, 125/86",1.5 fold
same,"Fold increase of plasma methyl-nicotinamide above baseline and placebo, drug elevated subgroup","[5]; 12 months, 125/<0.1",≥ 1250 fold
same,"Plasma 1-Methynicotinamide, Month 6, individual participant",[5]; [15],72.2 µM and 6.7 µM and 98.7 µM and 8.5 µM and 73.1 µM and 120.1 µM and 30.7 µM and 77.4 µM and 114.1 µM and 160.6 µM and 61.9 µM and 130.4 µM and 151.9 µM and 186.7 µM and 248.2 µM and 186.6 µM and 191.6 µM and 68.1 µM and 186.9 µM
same,"Plasma 1-Methynicotinamide, Month 12, individual participant",[5]; [15],101.4 µM and 6.8 µM and 0.5 µM and 93.1 µM and 19.8 µM and 119.3 µM and 87.2 µM and 118.8 µM and 0.1 µM and 127.8 µM and 33.8 µM and 71.4 µM and 101.3 µM and 15.3 µM and 73.9 µM and 116.0 µM and 293.9 µM and 219.6 µM and 242.1 µM and 152.9 µM and 1.2 µM and 76.9 µM and 15.0 µM
same,"Plasma analyte concentration, this work baseline","[5]; baseline before treatment, n = 47, ± S.D.",0.14 ± 0.03 µM
same,concentration at 12 months,"[5]; human, in vivo, 1500 mg BID, Mean plasma methyl-nicotinamide in 6 of 7 treated participants without measurable plasma nicotinamide, 12 months",12.7 µM
same,concentration at 12 months,"[5]; human, in vivo, 1500 mg, Mean plasma methyl-nicotinamide, plasma nicotinamide elevated subgroup, treated, 12 months",125 µM
same,concentration at 12 months,"[5]; human, in vivo, 1500 mg, Mean plasma methyl-nicotinamide, plasma nicotinamide unelevated subgroup, treated, 9 participants, 12 months",37 µM
same,concentration at 12 months,"[5]; human, in vivo, 1500 mg, Plasma methyl-nicotinamide range in participants with elevated level, nicotinamide treated, 12 months",6 to 294 µM
same,concentration at 0 months,"[5]; human, in vivo, baseline before treatment, n = 47, ± S.D.",0.14 µM
same,concentration at 6 months,"[5]; human, in vivo, po, 1500 mg, Mean plasma methyl-nicotinamide, nicotinamide-treated participants, 1500 mg PO BID",114 µM
same,concentration at 12 months,"[5]; human, in vivo, po, 1500 mg, Mean plasma methyl-nicotinamide, nicotinamide-treated participants, 1500 mg PO BID, 12 months",91 µM
same,Fold increase of mean plasma methyl-nicotinamide,"[5]; treated, 6 and 12 months",> 600 fold
NC(=O)c1ccc[n+]([C@@H]2O[C@H](COP(=O)([O-])O)[C@@H](O)[C@H]2O)c1 [nicotinamide mononucleotide],CSF measure,[3]; in vivo,below our limits of detection
same,Plasma measure,[9],below our limits of detection
O=C(O)c1cccnc1 [nicotinic acid],CSF measure,[3]; [10],below our limits of detection
same,Plasma measure,[5],below our limits of detection
